Read-outs that look alike come from different tables or passages of the source.
Columns and labels:
[1] = test system: Erysiphe graminis tritici (powdery mildew); experiment: Test 1 greenhouse foliar spray screen, powdery mildew on wheat; assay type: in vivo; conditions: for POWD MDEW: disease control rating, foliar spray on wheat, 400 ppm (+++ at 100 ppm); for pest or weed control at 400 ppm: Blumeria graminis, foliar, Test 1, foliar spray on wheat, disease control rating at 400 ppm / 100 ppm, read-out: POWD MDEW
[2] = test system: Pyricularia oryzae (rice blast); experiment: whole plant or invertebrate; assay type: in vivo; conditions: for RICE BLAST: disease control rating, foliar spray on rice, 400 ppm (+++ at 100 ppm); for activity against rice blast: summary statement in the description; for pest or weed control at 400 ppm: Pyricularia oryzae, foliar, read-out: RICE BLAST, Test 1, foliar spray on rice, disease control rating at 400 ppm / 100 ppm
[3] = test system: Puccinia recondita tritici (leaf rust); experiment: Test 1 greenhouse foliar spray screen, leaf rust on wheat; assay type: in vivo; conditions: for LEAF RUST: disease control rating, foliar spray on wheat, 400 ppm (+++ at 100 ppm); for pest or weed control at 400 ppm: Puccinia recondita, foliar, Test 1, foliar spray on wheat, disease control rating at 400 ppm / 100 ppm
[4] = test system: Botrytis cinerea (gray mold); experiment: Test 1 greenhouse foliar spray screen, gray mold on grape berries; assay type: in vivo; conditions: for GRAY MOLD: disease control rating, spray on grape berries, 400 ppm (+++ at 100 ppm); for pest or weed control at 400 ppm: Botrytis cinerea, foliar, Test 1, spray on grape berries, disease control rating at 400 ppm / 100 ppm
[5] = test system: Pseudoperonospora cubensis (downy mildew); experiment: Test 1 greenhouse foliar spray screen, downy mildew on squash; assay type: in vivo; conditions: for DOWN MDEW: disease control rating, foliar spray on squash, 400 ppm (+++ at 100 ppm); for activity against downy mildew: summary statement in the description; for pest or weed control at 400 ppm: Pseudoperonospora cubensis, foliar, Test 1, foliar spray on squash, disease control rating at 400 ppm / 100 ppm, read-out: DOWN MDEW
[6] = test system: Cercospora beticola (leaf spot); experiment: Test 1 greenhouse foliar spray screen, leaf spot on sugar beet; assay type: in vivo; conditions: for LEAF SPOT: disease control rating, foliar spray on sugar beet, 400 ppm (+++ at 100 ppm); for pest or weed control at 400 ppm: Cercospora beticola, Test 1, foliar spray on sugar beet, disease control rating at 400 ppm / 100 ppm
[7] = test system: Venturia inaequalis (apple scab); experiment: Test 1 greenhouse foliar spray screen, apple scab on apple seedling; assay type: in vivo; conditions: for APPL SCAB: disease control rating, foliar spray on apple seedling, 400 ppm (+++ at 100 ppm); for pest or weed control at 400 ppm: Venturia inaequalis, Test 1, foliar spray on apple seedling, disease control rating at 400 ppm / 100 ppm, read-out: APPL SCAB
[8] = test system: Septoria tritici (leaf blotch); experiment: Test 1 greenhouse foliar spray screen, leaf blotch on wheat; assay type: in vivo; conditions: for LEAF BLOT: disease control rating, foliar spray on wheat, 400 ppm (+++ at 100 ppm); for pest or weed control at 400 ppm: Zymoseptoria tritici, Test 1, foliar spray on wheat, disease control rating at 400 ppm / 100 ppm, read-out: LEAF BLOT
plant pathogens = experiment: Fungicidal efficacy against a broad spectrum of plant pathogens (summary of screen); assay type: in vivo; conditions: summary statement in the description
[9] = test system: Twospotted spider mites (Tetranychus urticae Koch); experiment: Mite/insect screen, SM; assay type: in vivo; conditions: for mortality at 200 ppm / mortality at 400 ppm: Tetranychus urticae, read-out: SM RESULTS %; for mortality at 200 ppm / SM RESULTS % / mortality at 400 ppm: percent mortality
Summary of the method: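 Compounds dissolved in 50:50 acetone/alcohol containing sulfonate/nonionic emulsifier blends, then diluted with water to the indicated concentrations. Leaves sprayed on both surfaces to runoff at 10 psi and dried one hour. Percent mortality scored after standard exposure periods.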

[10] = test system: melon aphids (Aphis gossypii Glover); experiment: Mite/insect screen, MA; assay type: in vivo; conditions: percent mortality; for mortality at 200 ppm / mortality at 400 ppm: Aphis gossypii, read-out: MA RESULTS %
Summary of the method: (§1)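 Formulation: acetone/alcohol 50:50 + sulfonate/nonionic emulsifiers, water-diluted to indicated concs. Spray both leaf surfaces to runoff, 10 psi; dry 1 h. Armyworm: 2 excised uninfested leaves in Petri dish. Score % mortality after standard exposure.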

corn rootworm = experiment: Mite/insect screen, CRW; assay type: in vivo; conditions: percent mortality; for mortality at 12 ppm / mortality at 24 ppm: read-out: CRW RESULTS %
Summary of the method: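 Percent mortality is evaluated once the standard exposure period ends. Test material is applied as a water dilution of an acetone/alcohol (50:50) stock carrying two sulfonate/nonionic emulsifiers (23 and 13 g per liter).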

[11] = test system: southern armyworm (Spodopetra eridania Cramer); experiment: Mite/insect screen, SAW; assay type: in vivo; conditions: Spodoptera eridania, percent mortality, read-out: SAW RESULTS %; for mortality at 200 ppm: rate 200 ppm
Summary of the method: as §1

CUCURBIT DOWNY MILDEW = experiment: Greenhouse combination test with known fungicide, foliar spray; conditions: 1-9 rating scale, time 4 hours
Procedure: (§2) The test compounds were formulated for application by dissolving 50 mg of the compound into 1.25 ml of solvent. The solvent was prepared by mixing 50 ml of "Tween 20" with 475 ml of acetone and 475 ml of ethanol. The solvent/compound solution was diluted to 125 ml with deionized water. The resulting formulation contains 400 ppm test chemical. Lower concentrations were obtained by serial dilution with the solvent-surfactant mixture.
(§3) The formulated technical compounds were sprayed on all foliar surfaces of the host plants (or cut berry) to past run-off. Single pots of each host plant were placed on raised, revolving pedestals in a fume hood. Test solutions were sprayed on all foliar surfaces. All treatments were allowed to dry and the plants were inoculated with the appropriate pathogens within 2-4 hours.
(§4) In the tables, the time given under "Time in hours" is the number of hours elapsing between treatment and inoculation. […] In such cases, curative activity was being tested. […] In such cases, residual or protectant activity was tested. […] The results were evaluated on a 1-9 rating scale. These ratings represent the following percent disease control: 1 = 0-19%, 2 = 20-29%, 3 = 30-39%, 4 = 40-59%, 5 = 60-74%, 6 = 75-89%, 7 = 90-96%, 8 = 97-99%, and 9 = 100%.

CUCURBIT POWDERY MILDEW = experiment: as above; conditions: 1-9 rating scale, time 4 hours
Procedure: as §2, §3, §4

[12] = foliar, rate 200 ppm, foliar spray on squash
[13] = foliar, rate 400 ppm, foliar spray on squash

SMILES | activity against a broad spectrum of plant pathogens (plant pathogens) | pest or weed control at 400 ppm [1] [%] | pest or weed control at 400 ppm [2] [%] | pest or weed control at 400 ppm [3] [%] | pest or weed control at 400 ppm [4] [%] | pest or weed control at 400 ppm [5] [%] | pest or weed control at 400 ppm [6] [%] | pest or weed control at 400 ppm [7] [%] | pest or weed control at 400 ppm [8] [%] | mortality at 200 ppm [9, 12] [%] | mortality at 12 ppm (corn rootworm; CRW rate 12.00 ppm) [%] | mortality at 200 ppm ([11]; foliar, foliar spray on squash) [%] | mortality at 200 ppm [10, 12] [%] | mortality at 400 ppm [11, 13] [%] | mortality at 400 ppm [9, 13] [%] | mortality at 400 ppm [10, 13] [%] | mortality at 24 ppm (corn rootworm; CRW rate 24.00 ppm) [%] | also measured
Fc1cccc2c(NCCc3ccc(Cl)cc3Cl)ccnc12 [Example 76, N-[2-(2,4-dichlorophenyl)ethyl]-8-fluoro-4-quinolinamine] | particularly excellent activity | – | – | – | – | – | – | – | – | – | – | – | – | – | – | – | – | POWD MDEW [1]: ++ (90-100% control at 400 ppm); RICE BLAST [2]: +++ (90-100% control at 100 ppm); LEAF RUST [3]: +++ (90-100% control at 100 ppm); GRAY MOLD [4]: - (0-19% control at 400 ppm); DOWN MDEW [5]: +++ (90-100% control at 100 ppm); LEAF SPOT [6]: - (0-19% control at 400 ppm); APPL SCAB [7]: + (20-89% control at 400 ppm); LEAF BLOT [8]: +++ (90-100% control at 100 ppm); mortality at 200 ppm ([9]; SAW, SM & MA RATE 200 PPM): 0%; SM RESULTS % ([9]; SAW, SM & MA RATE 200 PPM): 0%; mortality at 200 ppm ([10]; SAW, SM & MA RATE 200 PPM): 0%; MA RESULTS % ([10]; SAW, SM & MA RATE 200 PPM): 0%; CRW RESULTS % (corn rootworm; CRW RATE 12.00 PPM): 0%; mortality at 12 ppm (corn rootworm; CRW RATE 12.00 PPM): 0%
CC(C)c1ccc(CCNc2ccnc3c(F)cccc23)cc1 [Example 114, N-[2-[4-(i-propyl)phenyl]ethyl]-8-fluoro-4-quinolinamine] | particularly excellent activity | – | – | – | – | – | – | – | – | – | – | – | – | – | – | – | – | POWD MDEW [1]: +++ (90-100% control at 100 ppm); RICE BLAST [2]: +++ (90-100% control at 100 ppm); activity against rice blast [2]: particularly excellent activity; LEAF RUST [3]: +++ (90-100% control at 100 ppm); GRAY MOLD [4]: - (0-19% control at 400 ppm); DOWN MDEW [5]: +++ (90-100% control at 100 ppm); activity against downy mildew [5]: particularly excellent activity; LEAF SPOT [6]: +++ (90-100% control at 100 ppm); APPL SCAB [7]: - (0-19% control at 400 ppm); LEAF BLOT [8]: +++ (90-100% control at 100 ppm); mortality at 400 ppm ([11]; SAW, SM & MA RATE 400 PPM): 70%; mortality at 400 ppm ([9]; SAW, SM & MA RATE 400 PPM): 100%; activity as miticides ([9]; summary statement in the description): particularly excellent activity; mortality at 400 ppm ([10]; SAW, SM & MA RATE 400 PPM): 30%; mortality at 24 ppm (corn rootworm; CRW RATE 24.00 PPM): 0%
Fc1cccc2c(OCCc3ccc(Cl)cc3)ccnc12 [Example 209, 4-[2-(4-chlorophenyl)-ethoxy]-8-fluoroquinoline] | particularly excellent activity | 90 to 100 | 90 to 100 | 90 to 100 | 0 to 19 | 90 to 100 | 90 to 100 | 20 to 89 | 90 to 100 | 0 | 0 | – | – | – | – | – | – | SM RESULTS % ([9]; rate 200 ppm, foliar spray on squash): 0%; CRW RESULTS % (corn rootworm; CRW rate 12.00 ppm): 0%
Cc1ccc(CCOc2ccnc3ccccc23)cc1 [Example 210, 4-[2-(4-methylphenyl)ethoxy]quinoline] | particularly excellent activity | 90 to 100 | 90 to 100 | 90 to 100 | 0 to 19 | 90 to 100 | 20 to 89 | 0 to 19 | 90 to 100 | 0 | 0 | 0 | 0 | – | – | – | – | activity against downy mildew [5]: particularly excellent activity
COc1ccccc1CCOc1ccnc2c(F)cccc12 [Example 228, 8-fluoro-4-[2-(2-methoxyphenyl)ethoxy]quinoline] | particularly excellent activity | 90 to 100 | 90 to 100 | 90 to 100 | 0 to 19 | 90 to 100 | 20 to 89 | 90 to 100 | 90 to 100 | 0 | 0 | 0 | 0 | 0 | 0 | 80 | 0 | –
CC(C)c1ccc(CCCc2ccnc3c(F)cccc23)cc1 [Example 256, 8-fluoro-4-[3-(4-(i-propyl)phenyl)propyl]quinoline] | particularly excellent activity | 90 to 100 | 90 to 100 | 90 to 100 | 0 to 19 | 90 to 100 | – | – | – | – | – | – | – | 100 | 0 | 0 | 100 | –
CC(C)(C)c1ccc(CCCc2ccnc3c(F)cccc23)cc1 [Example 260, 4-[3-[4-(t-butyl)phenyl]propyl]-8-fluoroquinoline] | particularly excellent activity | 90 to 100 | 90 to 100 | 90 to 100 | 0 to 19 | 90 to 100 | 20 to 89 | 0 to 19 | 90 to 100 | 100 | 0 | 100 | 100 | 40 | 0 | 0 | 40 | activity against rice blast [2]: particularly excellent activity
OC(c1ccc(F)cc1)(c1cncnc1)c1ccccc1Cl (stereo not drawn) [nuarimol, reference compound] | – | – | – | – | – | – | – | – | – | – | – | – | – | – | – | – | – | RESULTS (CUCURBIT DOWNY MILDEW; nuarimol alone 0.25 ppm): 1.0; RESULTS (CUCURBIT DOWNY MILDEW; nuarimol alone 0.50 ppm): 1.0; RESULTS (CUCURBIT DOWNY MILDEW; nuarimol alone 1.00 ppm): 1.0; RESULTS (CUCURBIT DOWNY MILDEW; nuarimol alone 2.00 ppm): 1.0; RESULTS (CUCURBIT POWDERY MILDEW; nuarimol alone 0.25 ppm): 6.0; RESULTS (CUCURBIT POWDERY MILDEW; nuarimol alone 0.50 ppm): 7.0; RESULTS (CUCURBIT POWDERY MILDEW; nuarimol alone 1.00 ppm): 8.0; RESULTS (CUCURBIT POWDERY MILDEW; nuarimol alone 2.00 ppm): 9.0

— patent EP0326331B1, “Substituted quinolines and cinnolines” (Dow AgroSciences LLC, priority 1988, dated 1989)
